Measured values from patent US11447486B2, “2-amino-benzimidazole derivatives and their use as 5-lipoxygenase and/or prostaglandin E synthase inhibitors” (INSTITUT PASTEUR KOREA, priority 2014, dated 2022).
pEC50, pIC50: −log10 of the molar value.

Columns and labels:
[1] = test system: Rat basophilic leukemia (RBL) cells; assay: LTB4 secretion assay in RBL (rat basophilic leukemia cells); type: cell-based; conditions: Rattus norvegicus, RBL
Experimental: Rat basophilic leukemia (RBL) cells (ATCC, Cat #CRL-2256) were maintained in EMEM (ATCC, Cat #30-2003) supplemented with 15% FBS. The day before RBL assay, cells were seeded at a concentration of 2×10^4 cells per well in 96-well plates. The media was replaced with 100 ul of EMEM supplemented with 0.5% FBS and compounds in dose response(5 nM to 100 uM) were added. After 15 min of pre-incubation at 37° C., arachidonic acid and calcium ionophore (A23187) were added to give a final concentration of 2.5 uM and 5 uM, respectively. After a further 10 min incubation at 37° C., culture supernatant was transferred and quantification of LTB4 was done with a Leukotriene B4 EIA kit (Cayman, Cat #520111) as instructed.

[2] = target: T1, human 5-LOX (Homo sapiens, UniProt P09917); assay: 5-LOX enzyme activity, fluorescence method (5-HPETE, H2DCFDA); type: biochemical; conditions: read-out: 5-LO (IC50)
T1 construct: purchased Cayman 60402; host or cells: insect cells (lysate)
T1 sequence (P09917 1-674): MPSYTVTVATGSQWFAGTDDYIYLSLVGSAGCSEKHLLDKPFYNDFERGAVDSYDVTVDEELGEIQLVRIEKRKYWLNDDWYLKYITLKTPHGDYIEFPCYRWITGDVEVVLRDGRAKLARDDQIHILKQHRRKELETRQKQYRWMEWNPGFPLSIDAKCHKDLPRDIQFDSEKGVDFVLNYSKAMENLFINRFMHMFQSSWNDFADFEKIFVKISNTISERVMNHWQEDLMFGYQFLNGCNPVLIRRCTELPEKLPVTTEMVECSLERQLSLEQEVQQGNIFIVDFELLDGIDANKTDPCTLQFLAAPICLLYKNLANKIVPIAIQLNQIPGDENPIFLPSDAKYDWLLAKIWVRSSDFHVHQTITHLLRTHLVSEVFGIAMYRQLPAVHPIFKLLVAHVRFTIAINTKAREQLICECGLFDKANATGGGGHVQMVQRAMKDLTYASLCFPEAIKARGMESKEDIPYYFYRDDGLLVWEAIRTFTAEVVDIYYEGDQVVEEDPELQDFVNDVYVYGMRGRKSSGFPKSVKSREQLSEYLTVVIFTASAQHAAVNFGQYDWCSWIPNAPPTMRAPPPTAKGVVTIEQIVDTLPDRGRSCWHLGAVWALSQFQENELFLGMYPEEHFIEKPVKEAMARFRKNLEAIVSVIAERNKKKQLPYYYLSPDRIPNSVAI
Experimental: The activity of compounds against 5-LOX were determined by measuring LTB4 (leukotriene B4) levels and/or by a fluorescence method. Both approaches are outlined in more detail below;
The compound, in a dose response manner(0.5 nM to 10 uM), and enzyme mixture was pre-incubated for 5 minutes, and the enzymatic reaction was initiated by addition of ATP and arachidonic acid to a final concentration of 100 uM and 3 uM, respectively. […] All steps were carried out at room temperature.

Row | Structure (SMILES) | pEC50 [1] | pIC50 [2]
1 | CCn1c(NCc2ccc(Oc3ccc(Cl)cn3)cc2)nc2ccc(N)cc21 [Compound 265] | > 5.00 | > 6.00
2 | Clc1ccc(Oc2ccc(CNc3nc4ccc(NC5COC5)cc4n3C3COC3)cc2)nc1 [Compound 266] | 4.70 to 5.00 | > 6.00
3 | Cn1c(NCc2ccc(Oc3ccc(Cl)cn3)cc2F)nc2ccc(N)cc21 [Compound 272] | > 5.00 | > 6.00
4 | Cn1c(NCc2ccc(Oc3ccc(Cl)nc3)cc2)nc2ccc(N)cc21 [Compound 280] | > 5.00 | > 6.00
5 | Cc1cc(CNc2nc3ccc(N)cc3n2C)ccc1Oc1ccc(Cl)cn1 [Compound 282] | > 5.00 | > 6.00
6 | Cc1cc(CNc2nc3ccc(NC4COC4)cc3n2C)ccc1Oc1ccc(Cl)cn1 [Compound 283] | > 5.00 | > 6.00
7 | CN(C)CCn1c(NCc2ccc(Oc3ccc(Cl)cn3)cc2)nc2ccc(N)cc21 [Compound 286] | > 5.00 | > 6.00
8 | Cn1c(NCc2ccc(Oc3ccc(Cl)cc3)nc2)nc2ccc(N)cc21 [Compound 287] | > 5.00 | > 6.00
9 | Cn1c(NCc2ccc(Oc3ccc(OC(F)(F)F)cc3)cc2)nc2ccc(N)cc21 [Compound 292] | > 5.00 | > 6.00
10 | Cn1c(NCc2ccc(Oc3cnc(Cl)cn3)cc2)nc2ccc(N)cc21 [Compound 295] | > 5.00 | > 6.00
11 | Cn1c(NCc2ccc(Oc3ccc(Cl)cc3)cn2)nc2ccc(N)cc21 [Compound 297] | > 5.00 | > 6.00
12 | Cn1c(NCc2ccc(Oc3ccc(Cl)cn3)nc2)nc2ccc(N)cc21 [Compound 308] | < 4.70 | > 6.00
13 | Cn1c(NCc2ccc(C(=O)Nc3ccc(Cl)cn3)cc2)nc2ccc(N)cc21 [Compound 310] | < 4.70 | > 6.00
14 | Cc1ccc(Oc2ccc(CNc3nc4ccc(NC5COC5)cc4n3C)cc2)nn1 [Compound 312] | < 4.70 | > 6.00
15 | Cn1c(NCc2ccc(Oc3ccc(Cl)cn3)cc2)nc2ccc(NCCO)cc21 [Compound 313] | > 5.00 | > 6.00
16 | CN(C(=O)c1ccc(CNc2nc3ccc(N)cc3n2C)cc1)c1ccc(Cl)cn1 [Compound 319] | < 4.70 | > 6.00
17 | CN(C(=O)c1ccc(CNc2nc3ccc(NC4COC4)cc3n2C)cc1)c1ccc(Cl)cn1 [Compound 320] | < 4.70 | > 6.00

Row | Structure (SMILES) | pEC50 [1] | pIC50 [2]
18 | Cn1c(NCc2ccc(Oc3ncc(Cl)cc3F)cc2)nc2ccc(N)cc21 [Compound 323] | > 5.00 | > 6.00
19 | Cn1c(NCc2ccc(Oc3ccc(Cl)cn3)cc2)nc2ccc(NC(C)(C)CO)cc21 [Compound 325] | > 5.00 | > 6.00
20 | Cn1c(NCc2ccc(Oc3ccc(Cl)cn3)cc2)nc2ccc(NCCc3ccccn3)cc21 [Compound 329] | > 5.00 | > 6.00
21 | COc1ccc(Oc2ccc(CNc3nc4ccc(N)cc4n3C)cc2)nc1 [Compound 330] | > 5.00 | > 6.00
22 | COc1ccc(Oc2ccc(CNc3nc4ccc(NC5COC5)cc4n3C)cc2)nc1 [Compound 331] | > 5.00 | > 6.00
23 | CN1CCN(CCNc2ccc3nc(NCc4ccc(Oc5ccc(Cl)cn5)cc4)n(C)c3c2)CC1 [Compound 333] | > 5.00 | > 6.00
24 | Cc1cc(Oc2ccc(Cl)cn2)cc(C)c1CNc1nc2ccc(N)cc2n1C [Compound 334] | 4.70 to 5.00 | > 6.00
25 | Cc1cc(Oc2ccc(Cl)cn2)cc(C)c1CNc1nc2ccc(NC3COC3)cc2n1C [Compound 335] | > 5.00 | > 6.00
26 | COCCN(Cc1ccc(Oc2ccc(Cl)cn2)cc1)c1nc2ccc(N)cc2n1C [Compound 338] | < 4.70 | > 6.00
27 | Cn1c(NCc2ccc(Oc3cnc(Cl)nc3)cc2)nc2ccc(N)cc21 [Compound 340] | > 5.00 | > 6.00
28 | Cc1cnc(Oc2ccc(CNc3nc4ccc(N)cc4n3C)cc2)nc1 [Compound 348] | < 4.70 | > 6.00
29 | Cc1ccc(Oc2ccc(CNc3nc4ccc(N)cc4n3C)cc2)nc1 [Compound 352] | > 5.00 | > 6.00
30 | Cc1ccc(Oc2ccc(CNc3nc4ccc(NC5COC5)cc4n3C)cc2)nc1 [Compound 353] | > 5.00 | > 6.00
31 | Cn1c(NCc2ccc(Oc3ncc(Cl)cn3)cn2)nc2ccc(NC3COC3)cc21 [Compound 355] | < 4.70 | 5.00 to 6.00
32 | Cn1ccnc1CNc1ccc2nc(NCc3ccc(Oc4ncc(Cl)cn4)cc3)n(C)c2c1 [Compound 359] | > 5.00 | > 6.00
33 | Cn1c(NCc2ccc(Oc3nccc(C(F)(F)F)n3)cc2)nc2ccc(N)cc21 [Compound 363] | < 4.70 | > 6.00

The remaining lines, values ahead:

Row | pEC50 [1] | pIC50 [2] | Structure (SMILES)
34 | > 5.00 | > 6.00 | Cn1c(NCc2ccc(Oc3ccc(Cl)cn3)c(F)c2)nc2ccc(N)cc21 [Compound 267]
35 | > 5.00 | > 6.00 | CCC(Nc1nc2ccc(N)cc2n1C)c1ccc(Oc2ccc(Cl)cn2)cc1 (stereo not drawn) [Compound 274]
36 | > 5.00 | > 6.00 | Cn1c(NCc2ccc(Oc3ccc(C(F)(F)F)cn3)cc2)nc2ccc(N)cc21 [Compound 276]
37 | > 5.00 | > 6.00 | CCN(c1ccc2nc(NCc3ccc(Oc4ccc(Cl)cn4)cc3)n(C)c2c1)C1COC1 [Compound 278]
38 | > 5.00 | > 6.00 | Cn1c(NCc2ccc(Oc3ccc(Cl)cn3)cc2Cl)nc2ccc(N)cc21 [Compound 285]
39 | > 5.00 | > 6.00 | Cc1cc(Oc2ccc(Cl)cn2)ccc1CNc1nc2ccc(N)cc2n1C [Compound 290]
40 | > 5.00 | > 6.00 | Cn1c(NCc2ccc(Oc3ccc(OC(F)(F)F)cc3)cc2)nc2ccc(NC3COC3)cc21 [Compound 293]
41 | > 5.00 | > 6.00 | Cn1c(NCc2ccc(Oc3ccc(Cl)cn3)cn2)nc2ccc(N)cc21 [Compound 299]
42 | > 5.00 | > 6.00 | Cn1c(NCc2ccc(COc3ccc(Cl)cn3)cc2)nc2ccc(N)cc21 [Compound 304]
43 | > 5.00 | > 6.00 | COCCNc1ccc2nc(NCc3ccc(Oc4ccc(Cl)cn4)cc3)n(C)c2c1 [Compound 316]
44 | < 4.70 | > 6.00 | Cn1c(N(CCO)Cc2ccc(Oc3ccc(Cl)cn3)cc2)nc2ccc(N)cc21 [Compound 317]
45 | < 4.70 | > 6.00 | Cn1c(N(CCO)Cc2ccc(Oc3ccc(Cl)cn3)cc2)nc2ccc(NC3COC3)cc21 [Compound 318]
46 | 4.70 to 5.00 | > 6.00 | Cn1c(NCc2ccc(Oc3ncc(Cl)cc3Cl)cc2)nc2ccc(N)cc21 [Compound 321]
47 | > 5.00 | < 5.00 | Cn1c(NCc2ccc(Oc3ncc(Cl)cc3Cl)cc2)nc2ccc(NC3COC3)cc21 [Compound 322]
48 | > 5.00 | > 6.00 | Cn1c(NCc2ccc(Oc3ccc(Cl)cn3)cc2)nc2ccc(NC(C)(C)C(=O)O)cc21 [Compound 326]
49 | > 5.00 | > 6.00 | COc1cc(Oc2ccc(Cl)cn2)ccc1CNc1nc2ccc(N)cc2n1C [Compound 327]
50 | > 5.00 | > 6.00 | CN(C)CCn1c(NCc2ccc(Oc3ccc(Cl)cn3)cc2)nc2ccc(NC3COC3)cc21 [Compound 332]
51 | 4.70 to 5.00 | > 6.00 | COCCN(Cc1ccc(Oc2ccc(Cl)cn2)cc1)c1nc2ccc(NC3COC3)cc2n1C [Compound 339]
52 | > 5.00 | > 6.00 | Cn1c(NCc2ccc(OCc3ncco3)cc2)nc2ccc(N)cc21 [Compound 342]
53 | > 5.00 | > 6.00 | Cn1c(NCc2ccc(Oc3ccccn3)cc2)nc2ccc(N)cc21 [Compound 346]
54 | > 5.00 | > 6.00 | Cn1c(NCc2ccc(Oc3ccccn3)cc2)nc2ccc(NC3COC3)cc21 [Compound 347]
55 | > 5.00 | > 6.00 | Cc1cnc(Oc2ccc(CNc3nc4ccc(NC5COC5)cc4n3C)cc2)nc1 [Compound 349]
56 | 4.70 to 5.00 | > 6.00 | Cn1c(NCc2ccc(Oc3nc4ccccc4n3C)cc2)nc2ccc(N)cc21 [Compound 356]
57 | > 5.00 | > 6.00 | Cn1c(NCc2ccc(Oc3ncc(Br)cn3)cc2)nc2ccc(N)cc21 [Compound 361]
